Results from paper PMC5554537 (Frontiers in Pharmacology, 2017).

Columns and labels:
[1] = Metabolite profile in plasma, liver and HT29 tumor after i.p. SN30000; assay type: in vivo, NIH-III mice; settings: SN30000 186 mg/kg i.p.; for Metabolite/SN30000 peak area, Tumor: HT29 tumor
Procedure: Mouse plasma and tissue homogenates, prepared from tissue samples in two volumes of ice-cold PBS using a TissueLyser II (Qiagen Sciences, Germantown, MD, United States) with 30 Hz oscillation frequency for 1 min, were processed by precipitating proteins with 3 vol MeOH and centrifuging (13,000 g, 4°C for 10 min). Supernatants were diluted into 3 vol water and analyzed with an Agilent model 6460 LC-MS/MS with an in-line photodiode array absorbance detector. Chromatographic separation was performed on a Zorbax Eclipse C18 column (100 mm × 3.0 mm, 1.8 μm; Agilent Technologies) at 35°C with a flow rate of 0.6 mL/min, with positive or negative mode electrospray ionization. The mobile phase was a gradient constructed using 80% MeCN/20% water/0.1% formic acid v/v/v (A) and 0.1% formic acid in water (B) from 10% A to 80% A with a total run time of […]. The gradient profile was: 0–4 min, 10% A; 4–11 min linear increase to 60% A; 11–12 min to 80% A; held for 1 min, returned to 10% A over 0.5 min and held for 2 min before the next sample injection. Absorbance spectra were collected from 230 to 600 nm with a reference wavelength of 550 nm. The mass/charge (m/z) ratio was scanned from 100 to 800 with a fragmentor voltage of 120 V. MS^2 with various collision energies was used for further characterization of some metabolites.
Metabolites were investigated in plasma, liver and HT29 tumors following i.p. dosing of female NIH-III mice with SN30000 at 186 mg/kg, which represents its previously determined MTD for this route and mouse strain ([Gu et al., 2014]). Representative chromatograms are shown in Supplementary Figure 1. A total of 19 metabolites (M1–M19) were provisionally identified (Figure 1 and Table 1). Assignments were confirmed by comparison with synthetic standards in the case of the 1-oxide M14 and nor-oxide M13, which have previously been reported as murine metabolites of SN30000 ([Wang et al., 2012]) and for M15 which is known to be the major photodegradation product of SN30000 ([Gu et al., 2014]). In addition, the previously unreported metabolite M18, which is the main plasma metabolite at late times, was isolated from pooled plasma of mice dosed with M14 in sufficient quantity for characterization by NMR (Supplementary Data). This identified M18 as an oxidation product of M14 with an alkanoic acid side-chain (Figure 1), an assignment that was confirmed by synthesis of the authentic compound which was identical by HPLC retention time, absorbance spectrum, elemental analysis, mass spectrum and NMR spectroscopy.

NIH-III mice = experiment: Core body (rectal) temperature and acute clinical signs after dosing; assay type: in vivo
Procedure: Supplementary Figure 3. Initial rates of core temperature decrease in (untreated) NIH-III mice post- mortem: co mparison with initial temperature change ante- mortem following treatment with benzotriazine oxides at their MTD. Temperature was measured in rectu m and liver over 15 min. Initial rates of temperature loss (°C/min) were: post- mortem (rectum):
(rectum) 0.33. The rectal temperature loss following dosing with M14 (135 mg/kg) was 0.6 °C/min (not shown for clarity). The drug-induced changes are redrawn from Fig. 4.

[2] = target: T1, mouse brain acetylcholinesterase (Mus musculus, UniProt P21836); experiment: biochemical; settings: for IC50: mouse brain homogenate, 37°C
T1 construct: from tissue; host or cells: mouse brain homogenate
T1 sequence (P21836 32-614): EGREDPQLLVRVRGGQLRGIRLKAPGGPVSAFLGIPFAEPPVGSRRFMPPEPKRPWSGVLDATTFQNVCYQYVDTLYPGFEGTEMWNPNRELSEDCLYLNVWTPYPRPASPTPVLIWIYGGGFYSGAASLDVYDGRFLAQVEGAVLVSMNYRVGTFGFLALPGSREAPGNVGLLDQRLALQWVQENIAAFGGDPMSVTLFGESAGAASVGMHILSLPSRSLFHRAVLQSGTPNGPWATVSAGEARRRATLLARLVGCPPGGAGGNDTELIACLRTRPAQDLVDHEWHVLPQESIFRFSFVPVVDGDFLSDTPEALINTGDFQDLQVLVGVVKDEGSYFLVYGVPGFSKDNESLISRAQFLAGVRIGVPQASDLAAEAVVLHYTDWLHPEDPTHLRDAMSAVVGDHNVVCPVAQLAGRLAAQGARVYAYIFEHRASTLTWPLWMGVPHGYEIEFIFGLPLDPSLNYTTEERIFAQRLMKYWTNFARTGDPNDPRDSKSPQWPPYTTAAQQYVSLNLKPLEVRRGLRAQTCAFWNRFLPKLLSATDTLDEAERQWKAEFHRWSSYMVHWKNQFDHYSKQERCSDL
Procedure: TABLE 10: Inhibition of mouse brain acetylcholinesterase activitya by SN30000 and related compounds […]
aThe acetylcholinesterase inhibition assay is based on Obregon et al., 2005. Mouse brain homogenate was prepared in potassium phosphate buffer (100 mM, pH 7.4), which was pre-incubated with dithiobisnitrobenzoate (final concentration 1 mM) at 37°C for 10 min. After adding acetylthiocholine (final concentration 0.6 mM), the formation of 5-thio-2-nitrobenzoate was measured by monitoring absorbance (Spectramax- M2 spectrophotometer) at 412 nm every 30 s for 10 min. Negative controls (DMSO or saline) and positive control […]
IC50 values are based on 3-4 deter minations per compound.

in vivo [3] = settings: NIH-III nude, mouse, in vivo
Procedure: SN30000, M14 and M18 dosing solutions were prepared fresh in normal saline, filtered through 0.45 μm Acrodisc filters (Pall Life Sciences, Port Washington, NY, United States), protected from light in amber vials, and used within 3 h. Doses are expressed as mg of free base equivalent for SN30000 and M14, and free acid in the case of M18. […] Blood samples were collected from mice at various times by cardiac puncture, seconds after cervical dislocation, into ice-cold tubes containing K2EDTA. These were placed on ice immediately after collection and centrifuged (3,000 g, 3 min) within 10 min to harvest plasma. Plasma and tissues were rapidly frozen in liquid nitrogen before storage at -80°C for subsequent bioanalysis.
M18 was quantified by absorbance detection with reference to an external standard calibration curve.
Concentration-time data were analyzed by non-compartmental analysis using Phoenix WinNonlin (ver 6.4, Build 6.4.0768 Pharsight, United States); all AUC values were extrapolated to infinity using the linear trapezoidal rule. […] Model fits were further assessed by visual inspection of the residuals and predicted PK.

in vivo [4] = settings: NIH-III, mouse, in vivo, ip
Procedure: SN30000, M14 and M18 dosing solutions were prepared fresh in normal saline, filtered through 0.45 μm Acrodisc filters (Pall Life Sciences, Port Washington, NY, United States), protected from light in amber vials, and used within 3 h. Doses are expressed as mg of free base equivalent for SN30000 and M14, and free acid in the case of M18. […] For evaluation of acute toxicity, mice were observed continuously for 3 h after dosing, and their activity rated on a lethargy score from 0 representing no change in activity to 5 representing animals that were moribund and required culling. For MTD studies, the animals were checked daily for clinical signs of toxicity and body weight change for 2 weeks. In some studies rectal temperature changes after dosing were measured using a BAT-12 digital microprobe thermometer (Physitemp Instruments, Clifton, NJ, United States) at the times specified in the figures. Blood samples were collected from mice at various times by cardiac puncture, seconds after cervical dislocation, into ice-cold tubes containing K2EDTA. These were placed on ice immediately after collection and centrifuged (3,000 g, 3 min) within 10 min to harvest plasma. Plasma and tissues were rapidly frozen in liquid nitrogen before storage at -80°C for subsequent bioanalysis.
Concentration-time data were analyzed by non-compartmental analysis using Phoenix WinNonlin (ver 6.4, Build 6.4.0768 Pharsight, United States); all AUC values were extrapolated to infinity using the linear trapezoidal rule. A compartmental model for plasma PK after dosing with SN30000 or M14 was fitted using Phoenix NLME v1.3 with random effects on the metabolite volumes of distribution, and temperature effects based on the observed body temperature at the last measurement time. Temperature effects were added or removed until there was no significant change in the log likelihood. Model fits were further assessed by visual inspection of the residuals and predicted PK.

SMILES: O=C(O)CCc1nc2cc3c(cc2[n+]([O-])n1)CCC3 [M18]
- Metabolite/SN30000 peak area, Tumor [1]: 1.63
- Metabolite/SN30000 peak area, Liver [1]: 0.60
- Metabolite/SN30000 peak area, Plasma [1]: 1.14
- Body weight loss (NIH-III mice; 36 mg/kg): no body weight loss was observed
- Acute clinical signs and hypothermic response (NIH-III mice; 36 mg/kg i.p. or i.v.): no acute clinical signs or hypothermic response were observed
- Inhibition at 300 μM ([2]; mouse brain acetylcholinesterase, 300 μM): no inhibition
- IC50 [2]: > 300 µM
- AUC (in vivo [3]; iv, 1.86 mg/kg): 0.77 µM·h
- AUC (in vivo [3]; iv, 18.6 mg/kg): 10.1 µM·h
- half-life (in vivo [3]; iv, 18.6 mg/kg): 101 min
- AUC (in vivo [3]; iv, 78.3 mg/kg): 60.9 µM·h
- half-life (in vivo [3]; iv, 78.3 mg/kg): 75 min
- AUC (in vivo [4]; 1.86 mg/kg): 1.06 µM·h
- Cmax (in vivo [4]; 1.86 mg/kg): 0.65 µM
- half-life (in vivo [4]; 1.86 mg/kg): 102 min
- AUC (in vivo [4]; 18.6 mg/kg): 10.8 µM·h
- Cmax (in vivo [4]; 18.6 mg/kg): 5.44 µM
- half-life (in vivo [4]; 18.6 mg/kg): 220 min
- AUC (in vivo [4]; 78.3 mg/kg): 51.5 µM·h
- Cmax (in vivo [4]; 78.3 mg/kg): 23.4 µM
- half-life (in vivo [4]; 78.3 mg/kg): 35.5 min
- AUC (in vivo [4]; 92.8 mg/kg): 116 µM·h
- Cmax (in vivo [4]; 92.8 mg/kg): 52.8 µM
- half-life (in vivo [4]; 92.8 mg/kg): 145 min
- AUC (in vivo [4]; 186 mg/kg): 204 µM·h
- Cmax (in vivo [4]; 186 mg/kg): 79.5 µM
- half-life (in vivo [4]; 186 mg/kg): 1210 min

SMILES: [O-][n+]1nc(CCCN2CCOCC2)[n+]([O-])c2cc3c(cc21)CCC3 [SN30000, 3-(3-Morpholinopropyl)-7,8-dihydro-6H-indeno[5,6-e][1,2,4]triazine 1,4-dioxide]
- Metabolite/SN30000 peak area, Tumor [1]: 1.00
- Metabolite/SN30000 peak area, Liver [1]: 1.00
- Metabolite/SN30000 peak area, Plasma [1]: 1.00
- Drop in rectal temperature at nadir, below controls (NIH-III mice; i.p. MTD dose (186 mg/kg)): ~8 °C
- Time of temperature nadir (NIH-III mice; i.p. MTD dose (186 mg/kg)): approximately 30 min
- Initial rate of temperature loss (rectum) (NIH-III mice; i.p. SN30000 186 mg/kg, TPZ 31.7 mg/kg, M14 135 mg/kg): 0.52 °C/min
- IC50 [2]: 131 µM
- clearance (in vivo [3]; 78 mg/kg): 5.04 L/h/kg
- clearance (in vivo [3]; iv): 5 to 10 L/h/kg
- AUC (in vivo [3]; iv, 1.86 mg/kg): 0.53 µM·h
- Cmax (in vivo [3]; iv, 1.86 mg/kg): 1.86 ± 0.13 µM
- Vd (in vivo [3]; iv, 1.86 mg/kg): 1.52 L/kg
- clearance (in vivo [3]; iv, 1.86 mg/kg): 10.6 L/h/kg
- half-life (in vivo [3]; iv, 1.86 mg/kg): 8.03 min
- AUC (in vivo [3]; iv, 18.6 mg/kg): 8.1 µM·h
- Cmax (in vivo [3]; iv, 18.6 mg/kg): 25.2 ± 0.27 µM
- Vd (in vivo [3]; iv, 18.6 mg/kg): 1.29 L/kg
- clearance (in vivo [3]; iv, 18.6 mg/kg): 6.94 L/h/kg
- half-life (in vivo [3]; iv, 18.6 mg/kg): 27.6 min
- AUC (in vivo [3]; iv, 78.3 mg/kg): 47 µM·h
- Cmax (in vivo [3]; iv, 78.3 mg/kg): 81.9 ± 2.71 µM
- Vd (in vivo [3]; iv, 78.3 mg/kg): 2.24 L/kg
- clearance (in vivo [3]; iv, 78.3 mg/kg): 5.04 L/h/kg
- half-life (in vivo [3]; iv, 78.3 mg/kg): 23.9 min
- bioavailability (in vivo [4]): ~30%
- AUC (in vivo [4]; 1.86 mg/kg): 0.17 µM·h
- Cmax (in vivo [4]; 1.86 mg/kg): 0.59 µM
- half-life (in vivo [4]; 1.86 mg/kg): 20.8 min
- AUC (in vivo [4]; 18.6 mg/kg): 2.1 µM·h
- Cmax (in vivo [4]; 18.6 mg/kg): 6.8 µM
- half-life (in vivo [4]; 18.6 mg/kg): 25 min
- bioavailability (in vivo [4]; 78 mg/kg): ~70%
- AUC (in vivo [4]; 78.3 mg/kg): 31.5 µM·h
- Cmax (in vivo [4]; 78.3 mg/kg): 60.8 µM
- half-life (in vivo [4]; 78.3 mg/kg): 16.1 min
- AUC (in vivo [4]; 92.8 mg/kg): 49.2 µM·h
- Cmax (in vivo [4]; 92.8 mg/kg): 77.9 µM
- half-life (in vivo [4]; 92.8 mg/kg): 19.7 min
- AUC (in vivo [4]; 186 mg/kg): 155 µM·h
- Cmax (in vivo [4]; 186 mg/kg): 229 µM
- half-life (in vivo [4]; 186 mg/kg): 42.5 min
